Structures can show the parent of a compound that is named as a salt.
Assays:
Histamine H3 receptor [1] = molecular target: T1, Histamine H3 receptor (Cavia porcellus, UniProt Q9JI35); assay: Histamine H3 radioligand binding assay, guinea pig cortex ([3H]-R-α-methylhistamine); conditions: guinea pig cortex membranes, competition with 1 nM [3H]-R-α-methylhistamine; for Ki: read-out: pKi (Guinea pig cortex) (converted)
Description: The compounds of the invention were also tested in a guinea pig cortex binding assay, as follows:
Histamine H3 Radioligand Binding Assay—Guinea Pig Cortex
Male Dunkin Hartley guinea pigs (200-300 g) were used. The whole brain was removed and immediately placed in ice-cold 20 mM Hepes-NaOH buffer (pH7.4 at 21±3° C.). The cortex was dissected, weighed and homogenised in ice-cold 20 mM Hepes-NaOH buffer (pH7.4 at 21±3° C.) (50 ml/guinea-pig cortex) using a polytron (Kinematica AG; PT-DA 3020/2TS, 3×3 s). The homogenate was centrifuged at 100×g for 5 min and the supernatants pooled and stored at 4° C. The pellets were rehomogenised in fresh ice-cold buffer (80 ml) and recentrifuged (100×g for 5 min). The supernatants were pooled and pellets rehomogenised and recentrifuged (100×g for 5 min). All supernatants were pooled and centrifuged at 39,800×g for 12 min at 4° C. The final pellet was resuspended in 20 mM Hepes-NaOH buffer (pH7.4 at 21±3° C.) to a tissue concentration of 7.5 mg.ml^−1, using a teflon-in-glass homogeniser.
Guinea pig cortex membranes (400 μl) were incubated for 165 min at 21±3° C. in a final volume of 500 μl with 20 mM Hepes-NaOH buffer containing [^3H]-R-α-methylhistamine (50 μl; 1 nM) and competing compound. Total and non-specific binding of [^3H]-R-α-methylhistamine were defined using 50 μl of buffer and 50 μl of 10 μM thioperamide, respectively. The assay was terminated by rapid filtration through Whatman GF/B filters, presoaked (2 hr) in 0.1% polyethyleneimine, using a Brandell Cell Harvester. The filters were washed (3×3 ml) with ice-cold 50 mM Tris-HCl (pH6.9 at 21±3° C.), transferred into scintillation vials, 5 ml liquid scintillation cocktail was added and after 4 hours the bound radioactivity was determined by counting (4 min) in a Beckman liquid scintillation counter.
Data are analysed using GraphPad prism and the general equation for a competition curve with variable Hill slope (nH). [formula] where • X is the log concentration of competing compound, • Y is the binding obtained at each concentration of X, • pIC50 is the concentration of the competitor required to compete for half of the specific binding.
The IC50 is converted to the K1 using the Cheng Prusoff equation, K1=IC50/(1+(L/KD)) where • IC50 is the concentration of competitor required to compete for half the specific binding, • L is the radioligand concentration used, • KD is the equilibrium dissociation constant for the radioligand determined by saturation experiments.

Histamine H3 receptor [2] = molecular target: T1, Histamine H3 receptor; assay: Histamine H3 functional assay, guinea pig ileum (ileal longitudinal muscle, myenteric plexus); design: species or system tissue; conditions: antagonist affinity from rightward shift of R-(α)-methylhistamine E/[A] curves (Schild), typical variance ±0.15 log units; for Kb: read-out: pKb (Guinea pig ileum) (converted)
Description: • 1. J. Med. Chem 1994, 314. • 2. WO 97/29092 Histamine H3 Functional Assay—Guinea Pig Ileum
The biological activity of the compounds of the examples was measured using the ileal longitudinal muscle, myenteric plexus assay described by Paton and Aboo Zar (J. Physiol. 1968, 194, 13-33). Male Dunkin-Hartley guinea pigs (250-300 g) were employed. Briefly, a 50 cm portion of ileum proximal to the caecum was removed, after discarding the terminal 20 cm. Ileal segments (3 cm) were cleaned by passing Krebs-Henseleit buffer containing 3 μM mepyramine gently through the ileum using a Pasteur pipette (size: 13.8 cm length, 0.65 cm diameter). To avoid unnecessary damage to the tissue, Krebs-Henseleit buffer was passed through the ileal segment, while it was lying horizontally on a petri dish. Therefore, the ileum was not over-distended and the buffer flowed through with ease. Each segment was then passed over a Pasteur pipette and the longitudinal muscle layer and adhering myenteric plexus was teased away using moist cotton wool, by stroking tangentially away from the mesenteric attachment. The tissues were suspended in 20 ml organ baths containing Krebs-Henseleit buffer at 37±1° C. and gassed with […]. The tissues were ligated to two parallel stainless steel wires, situated between two platinum electrodes (0.76 cm length, 0.06 cm diameter). All measurements were recorded isometrically (Grass FTO3 transducer). Following an initial loading tension of 1 g, the tissues were stimulated with electrical pulses at a frequency of 0.1 Hz and a pulse duration of 0.5 msec, as described by Kosterlitz & Watt (Br. J. Pharmacol. 1968, 266276). Initially, the tissues were stimulated at supramaximal (1.3 fold times maximal) voltage for a period of 30 min and then the tissues were washed and re-stimulated. A “sighter dose” of the selective histamine H3-receptor agonist, R-(α)-methylhistamine (0.3 μM) (Arrang et al. Nature, 1987, 117-123), was administered. Upon generation of response, the “sighter dose” was removed from the tissues by “washout” (6 washes over 60 min) and during this period the electrical stimulation was switched off. The tissues were then re-stimulated and allowed to stabilise prior to the addition of drug treatments, which were allocated on a randomised block basis to the organ baths. Following the incubation period, a single cumulative E/[A] curve was obtained. The experimental E/[A] curve data was expressed as the percentage inhibition of the peak height of electrically-stimulated contraction. Antagonist affinity values were calculated from the degree of rightward shift of the R-(α)-methylhistamine E/[A] curves using Schild's methods (Arunlakshana & Schild Br. J. Pharmacol. 1959, 48-58). Typical variance in this assay is ±0.15 log units.

T1 sequence (Q9JI35 whole entry): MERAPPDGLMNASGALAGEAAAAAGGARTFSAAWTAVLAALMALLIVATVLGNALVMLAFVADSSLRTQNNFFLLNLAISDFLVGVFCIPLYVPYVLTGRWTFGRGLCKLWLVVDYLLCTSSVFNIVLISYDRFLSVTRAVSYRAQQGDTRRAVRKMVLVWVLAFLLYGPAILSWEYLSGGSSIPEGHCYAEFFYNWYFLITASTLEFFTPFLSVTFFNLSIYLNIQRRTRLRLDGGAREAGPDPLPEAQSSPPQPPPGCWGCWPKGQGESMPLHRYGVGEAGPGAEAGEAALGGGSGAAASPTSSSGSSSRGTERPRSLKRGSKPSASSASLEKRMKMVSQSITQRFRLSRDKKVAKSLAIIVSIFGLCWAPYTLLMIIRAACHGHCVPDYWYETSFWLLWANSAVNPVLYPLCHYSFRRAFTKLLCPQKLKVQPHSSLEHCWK

Compound | Ki (Histamine H3 receptor [1]) [µM] | Kb (Histamine H3 receptor [2]) [µM] | pKi (Guinea pig cortex) (Histamine H3 receptor [1]) | pKb (Guinea pig ileum) (Histamine H3 receptor [2])
N=C(N)NCCCN1CCCC1 [Example 1, N-(3-Pyrrolidin-1-yl-propyl)-guanidine bis-hydrochloride] | 0.0631 | 3.98 |  | 
COc1ccc(C/N=C(\N)NCCCN2CCCC2)cc1 [Example 3, N-(4-Methoxybenzyl)-N′-(3-pyrrolidin-1-yl-propyl)-guanidine bis-hydrochloride] | 0.0794 | 0.794 |  | 
Cl.Cl.N=C(NCCCN1CCCC1)NCc1ccc2ccccc2c1 [Example 4, N-Naphthalen-2-yl-methyl-N′-(3-pyrrolidin-1-yl-propyl)-guanidine bis-hydrochloride] |  |  | 7.1 | 6.5
N=C(NCCCN1CCCC1)NCc1ccccc1 [Example 8, N-Benzyl-N′-(3-pyrrolidin-1-yl-propyl)-guanidine bis-hydrochloride] |  | 0.631 |  | 
N=C(NCCCN1CCCC1)NCc1ccc(Br)cc1 [Example 9, N-(4-Bromobenzyl)-N′-(3-pyrrolidin-1-yl-propyl)-guanidine bis-hydrochloride] | 0.00501 | 0.316 |  | 
N=C(NCCCN1CCCC1)NCc1cccc(Br)c1 [Example 10, N-(3-Bromobenzyl)-N′-(3-pyrrolidin-1-yl-propyl)-guanidine bis-hydrochloride] | 0.0251 | 0.316 |  | 
Cl.Cl.N=C(NCCCN1CCCC1)NCc1ccc(-c2ccccc2)cc1 [Example 12, N-Biphenyl-4-yl-methyl-N′-(3-pyrrolidin-1-yl-propyl)-guanidine bis-hydrochloride] |  |  | 6.2 | 6.3
N=C(NCCN1CCCC1)NCc1ccc(Cl)cc1 [Example 16, N-(4-Chlorobenzyl)-N′-(2-pyrrolidin-1-yl-ethyl)-guanidine bis-hydrochloride] | 0.631 | 3.98 |  | 
N=C(NCCCCN1CCCC1)NCc1ccc(Cl)cc1 [Example 17] | 0.00501 | 0.0501 |  | 
N=C(NCCCCCN1CCCC1)NCc1ccc(Cl)cc1 [Example 18, N-(4-Chlorobenzyl)-N′-(5-pyrrolidin-1-yl-pentyl)-guanidine bis-hydrochloride] | 0.00501 | 0.0501 |  | 
N=C(NCCCN1CCCC1)NCCc1ccc(Cl)cc1 [Example 20, N-(2(4-Chlorophenyl)ethyl)-N′-(3-pyrrolidin-1-yl-propyl)-guanidine bis-hydrochloride] | 0.001 | 0.2 |  | 
Cl.Cl.N=C(NCCCCCN1CCCC1)NCC12CC3CC(CC(C3)C1)C2 [Example 30, N-Adamantan-1-yl-methyl-N′-(5-pyrrolidin-1-yl-pentyl)-guanidine bis-hydrochloride] |  |  | 8.5 | 7.9
N=C(N)N(CCCCN1CCCC1)Cc1ccc(Cl)cc1 [Example 68, N-(4-Chlorobenzyl)-N-(4-pyrrolidin-1-yl-butyl)-guanidine bis-hydrochloride] |  | 0.0501 |  | 
N=C(N)N(CCCCCCCN1CCCC1)Cc1ccc(Cl)cc1 [Example 71, N-(4-Chlorobenzyl)-N-(7-pyrrolidin-1-yl-heptyl)-guanidine bis-hydrochloride] |  | 0.00398 |  | 

Continued, in another order:

Ki (Histamine H3 receptor [1]) [µM] | Kb (Histamine H3 receptor [2]) [µM] | Compound | pKi (Guinea pig cortex) (Histamine H3 receptor [1]) | pKb (Guinea pig ileum) (Histamine H3 receptor [2])
0.0501 | 0.398 | N=C(NCCCN1CCCC1)NCc1ccc(Cl)cc1 [Example 2, N-(4-Chlorobenzyl)-N′-(3-pyrrolidin-1-yl-propyl)-guanidine bis-hydrochloride] |  | 
0.0501 | 0.398 | N=C(NCCCN1CCCC1)NCc1ccc(I)cc1 [Example 6, N-(4-Iodobenzyl)-N′-(3-pyrrolidin-1-yl-propyl)-guanidine bis-hydrochloride] |  | 
0.0398 | 0.398 | COc1ccc(CNC(=N)NCCCN2CCCC2)cc1Br [Example 7, N-(3-Bromo-4-methoxy-benzyl)-N′-(3-pyrrolidin-1-yl-propyl)-guanidine bis-hydrochloride] |  | 
0.0398 | 0.501 | N=C(NCCCN1CCCC1)NCc1ccccc1Br [Example 11, N-(2-Bromobenzyl)-N′-(3-pyrrolidin-1-yl-propyl)-guanidine bis-hydrochloride] |  | 
0.02 | 0.501 | N=C(NCCCN1CCCC1)NCc1ccc2[nH]cnc2c1 [Example 13, N-(1H-Benzimidazol-5-yl-methyl)-N′-(3-pyrrolidin-1-yl-propyl)-guanidine tris-hydrochloride] |  | 
0.0251 | 1 | COC(=O)c1ccc(CNC(N)=NCCCN2CCCC2)cc1 [Example 14, 4-(N′-(3-Pyrrolidin-1-yl-propyl)-guanidinomethyl)-benzoic acid methyl ester bis-hydrochloride] |  | 
0.0501 | 1 | N=C(NCCCN1CCCC1)Nc1ccc(Cl)cc1 [Example 19, N-(4-Chlorophenyl)-N′-(3-pyrrolidin-1-yl-propyl)-guanidine] |  | 
0.0501 | 0.158 | N=C(NCCCc1ccc(Cl)cc1)NCCCN1CCCC1 [Example 21, N-(3-(4-Chlorophenyl)propyl)-N′-(3-pyrrolidin-1-yl-propyl)-guanidine bis-hydrochloride] |  | 
0.0794 | 0.2 | N=C(NCCCCc1ccccc1)NCCCN1CCCC1 [Example 22, N-(4-Phenylbutyl)-N′-(3-pyrrolidin-1-yl-propyl)-guanidine bis-hydrochloride] |  | 
0.00631 | 0.631 | N=C(NCCCCN1CCCC1)NCCc1ccc(Cl)cc1 [Example 24, N-(2-(4-Chlorophenyl)ethyl)-N′-(4-pyrrolidin-1-yl-butyl)-guanidine bis-hydrochloride] |  | 
0.00794 | 0.0794 | N=C(NCCCCCN1CCCC1)NCCc1ccc(Cl)cc1 [Example 25, N-(2-(4-Chlorophenyl)ethyl)-N′-(5-pyrrolidin-1-yl-pentyl)-guanidine bis-hydrochloride] |  | 
0.0398 | 0.158 | N=C(NCCCN1CCCC1)NCCc1ccc(Br)cc1 [Example 26, N-(2-(4-Bromophenyl)ethyl)-N′-(3-pyrrolidin-1-yl-propyl)-guanidine bis-hydrochloride] |  | 
 | 0.00794 | N=C(N)N(CCCCCCCCN1CCCC1)Cc1ccc(Cl)cc1 [Example 79, N-(4-Chlorobenzyl)-N-(8-pyrrolidin-1-yl-octyl)-guanidine bis-hydrochloride] |  | 
 | 0.01 | N=C(N)N(CCCCCCCCCN1CCCC1)Cc1ccc(Cl)cc1 [Example 80, N-(4-Chlorobenzyl)-N-(9-pyrrolidin-1-yl-nonyl)-guanidine bis-hydrochloride] |  | 

— US6878736B1, “Histamine H3 receptor ligands” (James Black Foundation Limited, priority 1998, dated 2005)
